The values below come from patent US20150225341A1, “PHARMACEUTICALLY ACCEPTABLE SALTS OF THYMODEPRESSIN AND PROCESSES FOR THEIR MANUFACTURE” (APOTEX TECHNOLOGIES INC., priority 2014, published 2015).

Holding throughout (format): physicochemical
A short description of data set [1]: Speciation plot calculation of solution pH (FIG. 5, from experimentally determined pKas). The settings on record: according to speciation plot FIG. 5; 0.5 M solution. An excerpt:
A pharmaceutically acceptable salt of a drug substance is one that is chemically stable and can be used in a pharmaceutical composition. Unlike simple aromatic hydrocarbons, thymodepressin is a dipeptide with multi-functional groups. The dipeptide D-isoglutamyl-D-tryptophan has an alpha amine, two carboxylic acids and an indole nitrogen within the same molecule. An ideal salt should be one that has a solution pH close to about 7 and in the low basic pH range. Through investigations in our laboratory, in the search for a novel salt to address the shortcomings of the disodium salt of D-isoglutamyl-D-tryptophan, the speciation plot (FIG. 5) was used to determine salts with ideal solution pH and solubility that are suitable for pharmaceutical formulations. FIG. 5 is a speciation plot of H-D-iGlu-D-Trp-OH from pH 0 to 12 using experimentally determined pKas. In FIG. 5, LH2=H-D-iGlu-D-Trp-OH, LH=mono carboxylic acid salt, L=dicarboxylic acid salt, and LH3=acid addition salt of H-D-iGlu-D-Trp-OH. The X axis provides the pH of the solution, whereas the Y axis reports the amount of the species present at a particular pH. From our practical experience, we use 6 ml of water per gm of H-D-iGlu-D-Trp-OH for isolation purposes, which corresponds to a concentration of 0.5 M solution.
According to the speciation plot calculation shown in FIG. 5, the diacid form has a pH of about 2.7 to about 3 in solution. The metal salt of formula I wherein M is potassium or lithium; the divalent salt of formula II wherein B is calcium or magnesium has a solution pH close to about 7.
We have applied the speciation plot (FIG. 5) to compute the pH range of the salt forms of the dipeptide H-D-iGlu-D-Trp-OH. […] This is particular ideal for liquid formulation, sublingual tablets, nasal drops and sprays.

Data set [2] in a line: Percent crystallinity by X-ray powder diffraction. An excerpt:
The overall crystallinity measured by means of the XRPD technique provides additional helpful information for pharmaceutical materials that contain some amorphous material formed during synthetic procedure. It is also a valuable measure for control of long-term changes in the crystalline materials. Although not related to any structural and compositional features, the measured “percent crystallinity” may be a good indicator for the stability of a particular material as a function of time.
The percent crystallinity is commonly measured as a ratio between the diffraction portion from the crystalline part of the sample, IC, and the total diffraction from the same sample, IC+B. The values of CC can be obtained after an appropriate subtraction of the scattering portion from the background, IB.
For such kind of analyses, the diffraction is measured as total area under the profile of: • the whole pattern as it is collected (one may correct for the air scattering)—ITOTAL. • the peaks only (IC) after subtraction of the background (correction for the air scattering), • the background only with correction for air scattering—(IB).
However, in this study, due to the technical problems with the D5000 point-detector diffraction system, all the samples were analyzed on a D8 system, equipped with an area, 2D detector, and the above-mentioned approach could not be applied. Therefore, another technique has been developed for measuring the crystallinity of samples analyzed on such system. Only a narrow part of the 2D diffraction image is chosen with a single peak at the centre and a neighbour area where the background will be measured.
All samples were measured for calculation of their crystallinity using a narrow range of 21°-25° with a strongest reflection at […]. The background was subtracted as linear, and an empirical correlation coefficient of 2.5 was applied.

Data set [3] can be described thus: Hygroscopicity of the solid salt in air (laboratory observation). The settings on record: solid (freeze-dried / amorphous) salt.

Entries after “also recorded” stand apart in the source; their conditions may differ.

Consider “calcium salt of D-isoglutamyl-D-tryptophan (1:2) [Example 7]”, for which the pH in solution result in data set [1] is on record as “about 7”. The “% crystallinity” value in data set [2] (XRPD, D8 system with 2D detector, not absolute values, listed as Example 8) is 18-20%; in data set [2] (XRPD, D8 system with 2D detector, not absolute values, listed as H-D-iGlu-D-Trp-OH calcium (2:1)), “less than 67%”; in data set [2] (XRPD, D8 system with 2D detector; not absolute values; listed as calcium salt of thymodepressin [1:2)), at most 67%.
Consider “disodium salt of D-isoglutamyl-D-tryptophan”, for which the “hygroscopicity of the solid” value in data set [3] is “extremely hygroscopic turning into a gel in a matter of minutes in air; also recorded: hygroscopic and very difficult to handle”; in data set [3] (listed as disodium salt), “extremely hygroscopic and very difficult to weigh”. Further, the pH in solution result in data set [1] is on record as “above 9.0”.
As to “lithium salt of D-isoglutamyl-D-tryptophan (1:1) [Example 3A]”, the pH in solution result in data set [1] is “about 7”.
On the same count and under the same terms, for “magnesium salt of D-isoglutamyl-D-tryptophan (1:2) [Example 5]” the value was “about 7”; for “potassium salt of D-isoglutamyl-D-tryptophan (1:1) [Example 1]”, “about 7”.
